Legend:
D1 = target: T1, D1 (Homo sapiens, UniProt P21728); test: Dopamine D1 receptor binding
T1 construct: host or cells: membrane preparations
Method: (§1) Dopamine and serotonin receptor binding assays were performed in a standard manner with the incubation of membrane preparations in an assay buffer in the presence of a known radioactively labeled specific ligand for the receptor subtypes. Nonspecific binding was determined by assessing binding in the presence of excess ligand. Specific binding was measured as the total labeled ligand bound after the nonspecific binding was subtracted. The effect of the tested agents was measured by determining the competition for the receptor binding across a concentration range. Subsequently, an IC50 was determined for the agents tested. More specific details are provided below for several of the assays performed.

D3 = target: T2, D3 (Homo sapiens, UniProt P35462); test: Dopamine D3 receptor binding
T2 construct: host or cells: membrane preparations
T2 sequence (P35462 whole entry): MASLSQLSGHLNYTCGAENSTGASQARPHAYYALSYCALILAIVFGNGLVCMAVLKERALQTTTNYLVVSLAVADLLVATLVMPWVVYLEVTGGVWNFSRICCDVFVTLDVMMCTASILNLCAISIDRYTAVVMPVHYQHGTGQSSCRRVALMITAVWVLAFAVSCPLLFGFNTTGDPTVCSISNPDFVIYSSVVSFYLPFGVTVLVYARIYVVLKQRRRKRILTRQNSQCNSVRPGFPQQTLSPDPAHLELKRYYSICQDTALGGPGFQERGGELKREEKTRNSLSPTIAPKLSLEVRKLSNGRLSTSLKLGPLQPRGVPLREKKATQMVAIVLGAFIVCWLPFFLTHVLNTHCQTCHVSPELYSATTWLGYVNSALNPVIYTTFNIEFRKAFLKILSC
Method: as §1

5-HT1B = target: T3, 5-HT1B (Homo sapiens, UniProt P28222); test: 5-HT1B receptor binding; details: read-out: Serotonin Receptor Binding 5-HT1B (IC50)
T3 construct: host or cells: membrane preparations
T3 sequence (P28222 whole entry, species assumed): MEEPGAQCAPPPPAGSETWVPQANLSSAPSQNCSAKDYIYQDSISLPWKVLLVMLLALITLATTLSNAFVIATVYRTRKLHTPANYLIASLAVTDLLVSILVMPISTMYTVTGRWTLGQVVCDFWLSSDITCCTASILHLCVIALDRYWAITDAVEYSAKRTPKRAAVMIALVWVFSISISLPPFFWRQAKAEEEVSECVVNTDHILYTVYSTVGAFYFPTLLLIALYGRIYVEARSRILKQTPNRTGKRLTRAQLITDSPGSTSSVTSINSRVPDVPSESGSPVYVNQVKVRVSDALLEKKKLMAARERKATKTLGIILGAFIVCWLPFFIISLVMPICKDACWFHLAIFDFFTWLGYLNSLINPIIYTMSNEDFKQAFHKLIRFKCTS
Method: as §1

5-HT1D = target: T4, 5-HT1D (Homo sapiens, UniProt P28221); test: 5-HT1D receptor binding; details: read-out: Serotonin Receptor Binding 5-HT1D (IC50)
T4 construct: host or cells: membrane preparations
T4 sequence (P28221 whole entry, species assumed): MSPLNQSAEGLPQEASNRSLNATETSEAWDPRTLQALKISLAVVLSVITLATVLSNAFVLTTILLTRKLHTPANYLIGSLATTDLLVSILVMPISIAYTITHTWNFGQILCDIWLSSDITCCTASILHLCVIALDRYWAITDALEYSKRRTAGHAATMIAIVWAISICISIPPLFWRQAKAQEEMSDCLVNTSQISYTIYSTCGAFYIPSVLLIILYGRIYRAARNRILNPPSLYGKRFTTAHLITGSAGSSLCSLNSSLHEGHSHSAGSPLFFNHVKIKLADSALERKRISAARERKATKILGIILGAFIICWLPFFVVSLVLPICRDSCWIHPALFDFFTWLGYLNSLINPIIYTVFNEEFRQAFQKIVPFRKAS
Method: as §1

Human 5-HT2A receptor = target: T5, Human 5-HT2A receptor (Homo sapiens, UniProt P28223); test: 5-HT2A receptor binding; details: [3H]ketanserin, transfected CHO cell membranes; read-out: Serotonin Receptor Binding 5-HT2A (IC50)
T5 construct: expressed in transfected cells; host or cells: CHO cells
T5 sequence (P28223 whole entry): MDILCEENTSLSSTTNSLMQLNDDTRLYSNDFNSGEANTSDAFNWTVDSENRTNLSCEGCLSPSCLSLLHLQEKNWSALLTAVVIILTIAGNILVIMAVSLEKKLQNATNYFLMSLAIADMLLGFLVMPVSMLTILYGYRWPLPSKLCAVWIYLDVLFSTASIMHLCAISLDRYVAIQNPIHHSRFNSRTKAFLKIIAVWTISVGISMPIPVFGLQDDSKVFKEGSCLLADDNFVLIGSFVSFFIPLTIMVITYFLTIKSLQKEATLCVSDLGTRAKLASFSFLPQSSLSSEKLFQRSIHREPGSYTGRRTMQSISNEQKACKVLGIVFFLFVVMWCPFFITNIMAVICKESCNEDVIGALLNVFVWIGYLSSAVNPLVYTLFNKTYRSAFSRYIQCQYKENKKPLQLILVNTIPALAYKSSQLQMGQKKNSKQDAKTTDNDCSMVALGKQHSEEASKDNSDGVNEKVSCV
Method: as §1
Aliquots of transfected CHO cell membrane preparations corresponding to 20-50 μg protein are incubated for 15 min at 37° C. in 250 μl of 50 mM Tris-HCl buffer (pH 7.4) containing 2 nM [^3H]ketanserin and increasing concentrations of the competing drugs. Nonspecific binding is determined in the presence of 1 μM ketanserin. After incubation, the samples are filtered rapidly under vacuum through glass fiber filters (GF/B, Packard) and rinsed several times with ice-cold 50 mM Tris-HCl using a cell harvester (Packard). Bound radioactivity is measured with a scintillation counter (Topcount, Packard) using a liquid scintillation cocktail (Microscint 0, Packard).
The reference compound for this assay is ketanserin.

5-HT2B = target: T6, 5-HT2B (Homo sapiens, UniProt P41595); test: 5-HT2B receptor binding; details: read-out: Serotonin Receptor Binding 5-HT2B (IC50)
T6 construct: host or cells: membrane preparations
T6 sequence (P41595 whole entry, species assumed): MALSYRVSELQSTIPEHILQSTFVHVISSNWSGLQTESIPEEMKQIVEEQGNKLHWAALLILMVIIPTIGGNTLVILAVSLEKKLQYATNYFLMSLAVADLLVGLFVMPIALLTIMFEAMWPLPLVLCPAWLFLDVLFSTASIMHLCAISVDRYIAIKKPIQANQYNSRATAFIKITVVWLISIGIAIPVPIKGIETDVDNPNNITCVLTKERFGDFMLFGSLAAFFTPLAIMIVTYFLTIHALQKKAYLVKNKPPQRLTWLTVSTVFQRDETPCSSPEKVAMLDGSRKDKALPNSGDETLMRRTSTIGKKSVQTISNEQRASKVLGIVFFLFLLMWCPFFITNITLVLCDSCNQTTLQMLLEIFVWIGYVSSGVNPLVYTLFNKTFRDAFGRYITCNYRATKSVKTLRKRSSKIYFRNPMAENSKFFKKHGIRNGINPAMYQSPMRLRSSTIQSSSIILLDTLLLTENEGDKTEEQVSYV
Method: as §1

Human 5-HT2C receptor = target: T7, Human 5-HT2C receptor (Homo sapiens, UniProt P28335); test: 5-HT2C receptor binding; details: [3H]mesulergine, transfected CHO cell membranes; read-out: Serotonin Receptor Binding 5HT2C (IC50)
T7 construct: expressed in transfected cells; host or cells: CHO cells
T7 sequence (P28335 33-458): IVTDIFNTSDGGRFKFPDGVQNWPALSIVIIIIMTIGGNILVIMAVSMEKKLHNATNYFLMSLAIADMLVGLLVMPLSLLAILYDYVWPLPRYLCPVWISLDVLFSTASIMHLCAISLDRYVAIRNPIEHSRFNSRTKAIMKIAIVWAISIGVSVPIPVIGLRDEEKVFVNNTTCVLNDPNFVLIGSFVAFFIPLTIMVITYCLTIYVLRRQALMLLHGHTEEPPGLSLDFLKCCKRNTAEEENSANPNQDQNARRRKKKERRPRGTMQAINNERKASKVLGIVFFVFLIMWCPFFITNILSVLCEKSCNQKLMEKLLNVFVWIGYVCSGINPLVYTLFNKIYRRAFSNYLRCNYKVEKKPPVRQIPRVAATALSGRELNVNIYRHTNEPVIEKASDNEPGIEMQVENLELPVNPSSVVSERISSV
Method: as §1
Aliquots of transfected CHO cell membrane preparations corresponding to 5-10 μg protein are incubated for 30 min at 37° C. in 250 μl of 50 mM Tris-HCl buffer (pH 7.7) containing 10 μM pargyline, 0.7 nM [^3H]mesulergine and increasing concentrations of the competing drugs. Nonspecific binding is determined in the presence of 1 μM mesulergine. After incubation, the samples are filtered rapidly under vacuum through glass fiber filters (GF/B, Packard) and rinsed several times with ice-cold 50 mM Tris-HCl using a cell harvester (Packard). Bound radioactivity is measured with a scintillation counter (Topcount, Packard) using a liquid scintillation cocktail (Microscint 0, Packard). The reference compound for this assay is mesulergine.

5-HT5A = target: T8, 5-HT5A (Homo sapiens, UniProt P47898); test: 5-HT5A receptor binding; details: read-out: Serotonin Receptor Binding 5-HT5A (IC50)
T8 construct: host or cells: membrane preparations
T8 sequence (P47898 whole entry, species assumed): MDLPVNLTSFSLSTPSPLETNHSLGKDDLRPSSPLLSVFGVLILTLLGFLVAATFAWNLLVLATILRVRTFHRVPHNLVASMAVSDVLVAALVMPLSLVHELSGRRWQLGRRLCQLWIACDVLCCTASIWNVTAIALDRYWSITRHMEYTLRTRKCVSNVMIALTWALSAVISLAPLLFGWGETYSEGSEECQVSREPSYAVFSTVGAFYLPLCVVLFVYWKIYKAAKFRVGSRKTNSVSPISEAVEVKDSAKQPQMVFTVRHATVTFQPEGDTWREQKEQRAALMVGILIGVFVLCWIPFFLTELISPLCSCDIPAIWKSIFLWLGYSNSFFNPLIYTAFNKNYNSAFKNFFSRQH
Method: as §1

5-HT6 = target: T9, 5-HT6 (Homo sapiens, UniProt P50406); test: 5-HT6 receptor binding; details: read-out: Serotonin Receptor Binding 5-HT6 (IC50)
T9 construct: host or cells: membrane preparations
T9 sequence (P50406 whole entry, species assumed): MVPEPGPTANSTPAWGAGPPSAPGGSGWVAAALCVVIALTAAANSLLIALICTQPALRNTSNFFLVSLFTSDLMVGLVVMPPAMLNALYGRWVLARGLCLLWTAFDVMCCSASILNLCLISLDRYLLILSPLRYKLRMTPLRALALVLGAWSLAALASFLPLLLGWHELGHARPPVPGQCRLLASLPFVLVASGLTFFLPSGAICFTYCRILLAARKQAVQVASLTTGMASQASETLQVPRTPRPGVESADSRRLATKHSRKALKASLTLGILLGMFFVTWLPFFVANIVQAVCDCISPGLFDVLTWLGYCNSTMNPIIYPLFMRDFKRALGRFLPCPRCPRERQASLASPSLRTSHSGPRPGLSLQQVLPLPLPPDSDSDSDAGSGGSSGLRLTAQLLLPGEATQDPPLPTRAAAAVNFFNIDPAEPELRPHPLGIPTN
Method: as §1

5-HT7 = target: T10, 5-HT7 (Homo sapiens, UniProt P34969); test: 5-HT7 receptor binding; details: read-out: Serotonin Receptor Binding 5-HT7 (IC50)
T10 construct: host or cells: membrane preparations
T10 sequence (P34969 whole entry, species assumed): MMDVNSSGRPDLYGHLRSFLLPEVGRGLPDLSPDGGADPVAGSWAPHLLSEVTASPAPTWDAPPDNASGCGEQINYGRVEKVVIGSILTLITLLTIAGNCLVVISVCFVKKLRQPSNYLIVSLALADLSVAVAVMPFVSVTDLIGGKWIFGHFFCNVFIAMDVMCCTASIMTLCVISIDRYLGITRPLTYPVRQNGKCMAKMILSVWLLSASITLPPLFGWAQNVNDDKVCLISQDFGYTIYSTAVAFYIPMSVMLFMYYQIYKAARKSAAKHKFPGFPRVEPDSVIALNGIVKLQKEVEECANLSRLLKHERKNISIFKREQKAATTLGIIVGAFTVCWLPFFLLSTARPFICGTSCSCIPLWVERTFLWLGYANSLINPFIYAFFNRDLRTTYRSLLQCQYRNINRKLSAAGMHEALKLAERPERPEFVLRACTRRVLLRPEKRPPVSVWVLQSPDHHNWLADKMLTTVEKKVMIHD
Method: as §1

α1 Receptor = test: α1 receptor binding; details: read-out: α1 Receptor Binding Alpha1 (IC50)
[1] = target: T11, serotonin uptake by rat cortex synaptosomes (Rattus norvegicus, UniProt P31652); test: Serotonin uptake functional assay; format: biochemical; details: [3H]5-hydroxytryptamin, read-out: Monoamine Neuronal Transport 5-HT Uptake (IC50)
T11 construct: from tissue; host or cells: male Wistar rat cortex synaptosomes
T11 sequence (P31652 whole entry): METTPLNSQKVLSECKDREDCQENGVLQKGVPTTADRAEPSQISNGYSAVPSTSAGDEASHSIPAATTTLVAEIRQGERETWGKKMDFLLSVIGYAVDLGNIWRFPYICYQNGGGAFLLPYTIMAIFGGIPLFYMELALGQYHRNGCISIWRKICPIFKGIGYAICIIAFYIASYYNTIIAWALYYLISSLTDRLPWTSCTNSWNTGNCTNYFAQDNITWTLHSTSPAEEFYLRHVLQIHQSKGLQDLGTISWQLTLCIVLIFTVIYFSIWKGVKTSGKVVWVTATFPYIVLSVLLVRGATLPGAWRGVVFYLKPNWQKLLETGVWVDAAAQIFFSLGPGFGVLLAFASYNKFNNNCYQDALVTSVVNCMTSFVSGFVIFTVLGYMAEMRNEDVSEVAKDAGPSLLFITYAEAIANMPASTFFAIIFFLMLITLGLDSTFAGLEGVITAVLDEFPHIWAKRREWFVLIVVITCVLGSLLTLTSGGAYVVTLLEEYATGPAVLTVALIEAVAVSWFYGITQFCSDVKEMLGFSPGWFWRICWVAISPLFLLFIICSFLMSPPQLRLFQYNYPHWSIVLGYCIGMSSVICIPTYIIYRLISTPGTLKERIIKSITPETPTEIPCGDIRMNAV
Method: Serotonin uptake functional assay
Characterization of serotonin uptake is performed using synaptosomes isolated in a 0.32 M sucrose buffer from a male Wistar rat cortex. The uptake of radiolabelled serotonin by synaptosomes (100 μg of proteins/point) is allowed by incubating them for 15 minutes at 37° C. in presence of test compounds and [3H]5-hydroxytryptamin (0.1 μCi/point). The experiment is performed in a deep well.
Synaptosomes and [3H]5-hydroxytryptamin are prepared in a Krebs buffer pH 7.4 containing 25 mM NaHCO3, 11 mM glucose and 50 μM ascorbic acid. This incubation buffer is oxygenated during 5 minutes before incubation. Basal control is incubated for 15 minutes at 4° C. in order to avoid any uptake. Following this incubation the uptake is stopped by filtration through an “unifilter 96-wells GF”Packard plate washed with Krebs buffer containing 25 mM NaHCO3 in order to eliminate the free [3H]5-hydroxytryptamin. The radioactivity associated to the synaptosomes retained onto the unifilter corresponding to the uptake is then measured with a microplate scintillation counter Topcount, Packard using a scintillation liquid microscint 0, Packard.
[See Perovics and Müiller “Pharmacological profile of hypericum extract: effect on serotonin uptake by postsynaptic receptors”, Arzeim Forsch/Drug Res. 45 1145-1148 (1995).]

T1 sequence (P21728 whole entry): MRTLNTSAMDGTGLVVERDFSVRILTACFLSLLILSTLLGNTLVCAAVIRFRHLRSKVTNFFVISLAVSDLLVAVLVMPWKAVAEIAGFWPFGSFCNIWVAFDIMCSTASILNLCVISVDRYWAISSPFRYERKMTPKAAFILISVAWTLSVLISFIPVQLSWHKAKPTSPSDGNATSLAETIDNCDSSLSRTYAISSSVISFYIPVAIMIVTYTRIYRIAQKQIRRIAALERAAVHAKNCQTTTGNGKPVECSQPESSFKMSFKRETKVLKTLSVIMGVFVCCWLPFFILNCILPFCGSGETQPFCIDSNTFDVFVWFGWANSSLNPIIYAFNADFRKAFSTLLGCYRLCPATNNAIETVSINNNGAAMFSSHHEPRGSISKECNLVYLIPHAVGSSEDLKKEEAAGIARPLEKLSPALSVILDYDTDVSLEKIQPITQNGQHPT

Compound | IC50 (D1) | IC50 (D3) | IC50 (5-HT1B) | IC50 (5-HT1D) | IC50 (Human 5-HT2A receptor) | IC50 (5-HT2B) | IC50 (Human 5-HT2C receptor) | IC50 (5-HT5A) | IC50 (5-HT6) | IC50 (5-HT7) | IC50 (α1 Receptor) | IC50 [1]
C[C@@H](O)c1nn(CCCN2CCN(c3cccc(Cl)c3)CC2)c(=O)n1CCOc1ccccc1 [(R)-OH, (R)-hydroxynefazodone] | 1690 nM | 3490 nM | 3.61 µM | 1990 nM | 22 nM | 28 nM | 33 nM | 2040 nM | 1020 nM | 71 nM | 367 nM | 640 nM
C[C@H](O)c1nn(CCCN2CCN(c3cccc(Cl)c3)CC2)c(=O)n1CCOc1ccccc1 [(S)-OH, (S)-2-{3-[4-(3-Chlorophenyl)-1-piperazinyl]propyl}-4-(2-phenoxyethyl)-5-[1-(hydroxy)-ethyl]-2,4-dihydro-[1,2,4]triazol-3-one] | 2310 nM | 1910 nM | 2.84 µM | 234 nM | 18 nM | 41 nM | 34 nM | 1970 nM | 489 nM | 60 nM | 419 nM | 790 nM
CC(O)c1nn(CCCN2CCN(c3cccc(Cl)c3)CC2)c(=O)n1CCOc1ccccc1 (racemic) [(RS)-OH, 2-[3-[4-(3-chlorophenyl)1-piperazinyl]propyl]-5-(1-hydroxyethyl)-2,4-dihydro-4-(phenoxyethyl)-3H-1,2,4-triazol-3-one, reference compound] | 2270 nM | 2560 nM | 4.55 µM | 1150 nM | 20 nM | 34 nM | 46 nM | 2230 nM | 856 nM | 61 nM | 381 nM | 500 nM
